The results in this text go back to patent US5952324A, “Bicyclic oxazine and thiazine oxazolidinone antibacterials” (Pharmacia & Upjohn Company, priority 1997, dated 1999).

SMILES strings stand for the structures.

The test system of this test is S. aureus UC ® 9213. As to the kind of experiment: In vivo murine assay, ED50 against S. aureus UC 9213 infection (survival, female mice). Conditions: Staphylococcus aureus, UC9213, 144 h; PO; female mice infected intraperitoneally; dosed one and five hours after infection, six dose levels; survival six days, probit analysis; read-out: ED50 (mg/kg), Example, PO. How it is done:
Antimicrobial activity was tested in vivo using a Murine Assay procedure. Groups of female mice were injected intraperitoneally with bacteria which were thawed just prior to use and suspended in brain heart infusion with 4% Brewer's yeast UC9213 (Staphylococcus aureus) or brain hear infusion (Streptococcus species). Antibiotic treatment a six dose levels per drug was administered on hour and five hours after infection by either oral or subcutaneous routes. Survival was observed daily for six days. ED50 values based on mortality ratios were calculated using probit analysis. The subject compounds were compared against a well-known antibacterial (Vancomycin) as a control.
In Vivo Activity Against S. aureus UC ® 9213
With `CC(=O)NC[C@H]1CN(c2ccc(N3C[C@H]4CSC[C@H]4C3)c(F)c2)C(=O)O1` [Example 4, (S)-N-[[3-[3-fluoro-4-(tetrahydro-1H-thieno[3,4-c]pyrrol-5(3H)-yl)phenyl]-2-oxo-5-oxazolidinyl]methyl]acetamide], the ED50 was 4.3 mg/kg.

In the case of `CC(=O)NC[C@H]1CN(c2ccc(N3C[C@@H]4C[C@H]3CS4)c(F)c2)C(=O)O1` [Example 2, (S)-N-[[3-[3-fluoro-4-[(1S,4S)-2-thia-5-azabicyclo[2.2.1]heptan-5-yl]-phenyl]-2-oxo-5-oxazolidinyl]methyl]acetamide], the ED50 was 4.2 mg/kg. On to `CC(=O)NC[C@H]1CN(c2ccc(N3C[C@@H]4C[S+]([O-])C[C@@H]4C3)c(F)c2)C(=O)O1` (stereo partly drawn) [Example 5, (S)-N-[[3-[3-fluoro-4-(tetrahydro-1H-thieno[3,4-c]pyrrol-5(3H)-yl)phenyl]-2-oxo-5-oxazolidinyl]methyl]acetamide, S-oxide], for which the ED50 worked out at 10 mg/kg.

For the compound `CC(=O)NC[C@H]1CN(c2ccc(N3C[C@@H]4C[C@H]3CO4)c(F)c2)C(=O)O1` [Example 1, (S)-N-[[3-[4-[(1S,4S)-2-oxa-5-azabicyclo[2.2.1]heptan-5-yl]-3-fluorophenyl]-2-oxo-5-oxazolikinyl]methyl]acetamide], the ED50 came to 7.7 mg/kg. `CC(=O)NC[C@H]1CN(c2ccc(N3C[C@@H]4CS(=O)(=O)C[C@@H]4C3)c(F)c2)C(=O)O1` [Example 6, (S)-N-[[3-[3-fluoro-4-(tetrahydro-1H-thieno[3,4-c]pyrrol-5(3H)-yl)phenyl]-2-oxo-5-oxazolidinyl]methyl]acetamide, S,S-dioxide]: the ED50 stood at 3.5 mg/kg.
